Among the test systems are SK-OV-3 ovarian; CAKI-1 renal; DU-145 prostate; SNB-19 CNS; SK-MEL-2 melanoma; HOP-92 NSCLC; SF-268 CNS; RPMI-8226 leukemia; CCRF-CEM leukemia; SW-620 colon.
Common to all, as to experiment: inhibition of tumour cell growth, NCI panel, 48 h

Where “and” joins values, the source holds several entries; their conditions need not be identical. Equal entries are not always repeated.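 Following 48 hours of exposure in 96-well plates, responses at five concentrations were used to interpolate endpoints linearly. GI50 is the concentration that inhibits growth by half. At the TGI there is no net growth.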 Some results are limits rather than exact numbers.

With `Cc1cc(N=Nc2ccccc2C)ccc1N`, the GI50 with SK-OV-3 ovarian is 22.2 µM; with CAKI-1 renal it was 7.38 µM; in the assay with DU-145 prostate, 9.35 µM; in the assay on SNB-19 CNS, 16.4 µM; with HOP-92 NSCLC it was 7.41 µM; in the assay with SF-268 CNS, 4.36 µM. The GI50 with RPMI-8226 leukemia was 1.69 µM; in the assay with CCRF-CEM leukemia it was 0.435 µM; in the assay with SW-620 colon, 14.8 µM. Also, the TGI was 67 µM and 66.9 µM with SK-OV-3 ovarian; 46.5 µM and 28.7 µM in the assay on CAKI-1 renal; 27.2 µM in the assay on DU-145 prostate; > 100 µM and 56 µM with SNB-19 CNS; 33.5 µM with SK-MEL-2 melanoma; 25.1 µM and 26.8 µM in the assay with HOP-92 NSCLC. The TGI is 33.6 µM with SF-268 CNS; 34.5 µM with RPMI-8226 leukemia; over 100 µM with CCRF-CEM leukemia; 48.5 µM and 30.8 µM with SW-620 colon.
For the compound `COC(=O)c1cncc(/C=C/c2c(C)cc(O)cc2C)c1`, the GI50 is 8.01 µM in the assay with SK-OV-3 ovarian; over 16.2 µM in the assay on CAKI-1 renal; 13.6 µM in the assay on DU-145 prostate; over 21.9 µM in the assay with SNB-19 CNS; 8.31 µM in the assay on SK-MEL-2 melanoma; 4.97 µM in the assay with HOP-92 NSCLC. The GI50 with SF-268 CNS was 14.1 µM; with RPMI-8226 leukemia, 9.03 µM; in the assay on CCRF-CEM leukemia, 6.77 µM; with SW-620 colon, 8.63 µM. Besides, the TGI is 24.8 µM in the assay on SK-OV-3 ovarian; over 25 µM with CAKI-1 renal; over 25 µM in the assay with DU-145 prostate; over 25 µM with SNB-19 CNS; 22.1 µM in the assay with SK-MEL-2 melanoma; over 22.1 µM with HOP-92 NSCLC. Moreover, the TGI with SF-268 CNS, in the assay with RPMI-8226 leukemia, in the assay with CCRF-CEM leukemia and in the assay on SW-620 colon was over 25 µM each time.
`O=C(CC1(O)C(=O)N(Cc2ccccc2)c2ccccc21)c1ccc(C(=O)NCC2CCC3(CC2)OOC2(CCCCC2)OO3)cc1` (centres undefined): the GI50 in the assay on SK-OV-3 ovarian is 6.57 µM; in the assay with CAKI-1 renal, 0.577 µM; in the assay on DU-145 prostate, 0.25 µM; in the assay with SNB-19 CNS it was 4.67 µM; with SK-MEL-2 melanoma, 2.28 µM; in the assay on HOP-92 NSCLC it was 0.184 µM. Moreover, the GI50 in the assay with SF-268 CNS is 1.85 µM; with RPMI-8226 leukemia it was 0.886 µM; in the assay with CCRF-CEM leukemia, 0.421 µM; in the assay with SW-620 colon, 3.56 µM. For the same compound, the TGI with SK-OV-3 ovarian was over 51.1 µM; in the assay on CAKI-1 renal, 1.14 µM; with DU-145 prostate, 0.625 µM; in the assay on SNB-19 CNS, 51.8 µM; with SK-MEL-2 melanoma, 5.24 µM; with HOP-92 NSCLC, 0.434 µM. The TGI in the assay with SF-268 CNS is 4.03 µM; in the assay on RPMI-8226 leukemia it was 3.43 µM; in the assay with CCRF-CEM leukemia, 2.17 µM; with SW-620 colon, over 41.5 µM.
Consider `Cc1cccc2c3c(sc12)C(c1ccc(Cl)cc1)C(C#N)=C(N)O3` (centres undefined), for which the GI50 with SK-OV-3 ovarian is 3.59 µM; in the assay on CAKI-1 renal it was 0.295 µM; with DU-145 prostate, 0.459 µM; in the assay on SNB-19 CNS, 0.452 µM; in the assay on SK-MEL-2 melanoma, 1.41 µM; in the assay with HOP-92 NSCLC, 1.32 µM. For the same compound, the GI50 with SF-268 CNS is 1.41 µM; in the assay on RPMI-8226 leukemia, 0.423 µM; in the assay with CCRF-CEM leukemia, 0.382 µM; in the assay on SW-620 colon, 0.416 µM. Further, the TGI with SK-OV-3 ovarian came to 27.2 µM; in the assay with CAKI-1 renal it was 14.5 µM; with DU-145 prostate, 11.6 µM; in the assay with SNB-19 CNS, 12.6 µM; in the assay on SK-MEL-2 melanoma, 21 µM; in the assay on HOP-92 NSCLC, 19 µM. For the same compound, the TGI in the assay with SF-268 CNS is 14.8 µM; in the assay with RPMI-8226 leukemia it was 6.33 µM; in the assay with CCRF-CEM leukemia, 32.1 µM; in the assay with SW-620 colon, 11.6 µM.
As for `CCN(CC)CCCCCCNc1cc(OC)cc2cccnc12`, the GI50 is 17.7 µM with SK-OV-3 ovarian; 12.4 µM with CAKI-1 renal; 1.8 µM in the assay on DU-145 prostate; 8.17 µM in the assay with SNB-19 CNS; 17.6 µM in the assay on SK-MEL-2 melanoma; 12.5 µM in the assay with HOP-92 NSCLC. The GI50 with SF-268 CNS was 1.72 µM; in the assay on RPMI-8226 leukemia it was 2.38 µM; in the assay with CCRF-CEM leukemia it was 2.39 µM; in the assay on SW-620 colon it was 1.79 µM. For the same compound, the TGI in the assay with SK-OV-3 ovarian was determined as 33 µM; in the assay with CAKI-1 renal, 26.6 µM; in the assay on DU-145 prostate, 3.65 µM; with SNB-19 CNS, 30.8 µM; with SK-MEL-2 melanoma, 32.6 µM; with HOP-92 NSCLC, 27.6 µM. The TGI in the assay with SF-268 CNS turned out to be 3.83 µM; in the assay on RPMI-8226 leukemia, 5.45 µM; in the assay with CCRF-CEM leukemia it was 4.97 µM; with SW-620 colon, 3.71 µM.
On to `COC1=C(OC)C(=O)C(SC/C=C(\C)CCCC(C)CCCC(C)CCCC(C)C)=CC1=O` (centres undefined), for which the GI50 in the assay with SK-OV-3 ovarian was 2.47 µM; in the assay with CAKI-1 renal, 6.64 µM; in the assay on DU-145 prostate, 4.27 µM; with SNB-19 CNS it was 1.5 µM; in the assay on SK-MEL-2 melanoma, 0.802 µM; in the assay with HOP-92 NSCLC, 1.41 µM. For the same compound, the GI50 with SF-268 CNS is 1.98 µM; with RPMI-8226 leukemia it was 0.126 µM; in the assay on CCRF-CEM leukemia, 1.19 µM; in the assay with SW-620 colon, 0.872 µM. The TGI with SK-OV-3 ovarian was over 91.6 µM; in the assay on CAKI-1 renal, over 37 µM; with DU-145 prostate, over 100 µM; in the assay on SNB-19 CNS, over 100 µM; with SK-MEL-2 melanoma, 4.24 µM; in the assay on HOP-92 NSCLC, 6.65 µM. Moreover, the TGI in the assay with SF-268 CNS is over 100 µM; in the assay with RPMI-8226 leukemia, 2.88 µM; in the assay with CCRF-CEM leukemia, over 100 µM; with SW-620 colon, over 100 µM.
`N#CC1=C(/N=C/c2ccccc2)Oc2c(ccc3ccccc23)C1c1ccccc1` (centres undefined): the GI50 in the assay with SK-OV-3 ovarian is 0.534 µM; in the assay on CAKI-1 renal, 0.31 µM; in the assay with DU-145 prostate it was 0.735 µM; in the assay on SNB-19 CNS, 0.702 µM; in the assay with SK-MEL-2 melanoma, 1.41 µM; with HOP-92 NSCLC, 0.299 µM. Further, the GI50 with SF-268 CNS was 1.02 µM; in the assay on RPMI-8226 leukemia, 0.441 µM; in the assay with CCRF-CEM leukemia, 0.462 µM; in the assay on SW-620 colon it was 0.405 µM. Further, the TGI was over 100 µM in the assay with SK-OV-3 ovarian; over 53.7 µM with CAKI-1 renal; over 64.3 µM with DU-145 prostate; over 100 µM in the assay with SNB-19 CNS; over 100 µM in the assay with SK-MEL-2 melanoma; over 23.6 µM with HOP-92 NSCLC. The TGI with SF-268 CNS, in the assay with RPMI-8226 leukemia, with CCRF-CEM leukemia and with SW-620 colon was over 100 µM throughout.

The values above are taken from PubChem BioAssay (NCI).
